Values belong to the molecule of their own block, whether it stands above or below them.
Biological target: T1, human CRTH2 receptor (Homo sapiens, UniProt Q9Y5Y4)
T1 construct: host or cells: CHO-K1 (CHO-K1-hCRTH2 cells); membranes prepared in house from the purchased cell line
T1 sequence (Q9Y5Y4 1-395): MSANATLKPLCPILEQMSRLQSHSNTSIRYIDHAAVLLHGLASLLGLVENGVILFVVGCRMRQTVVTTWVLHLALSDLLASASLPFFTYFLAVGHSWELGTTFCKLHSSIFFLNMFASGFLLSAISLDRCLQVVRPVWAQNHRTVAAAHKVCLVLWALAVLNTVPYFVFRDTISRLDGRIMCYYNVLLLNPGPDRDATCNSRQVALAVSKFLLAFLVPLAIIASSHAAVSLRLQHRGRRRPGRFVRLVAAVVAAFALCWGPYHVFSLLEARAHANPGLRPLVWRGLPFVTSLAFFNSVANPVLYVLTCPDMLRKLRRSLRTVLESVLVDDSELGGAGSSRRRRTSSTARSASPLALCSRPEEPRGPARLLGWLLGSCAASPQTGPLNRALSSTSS
Experiment: Human CRTH2 receptor membrane radioligand binding assay (SPA, [3H]-PGD2)
Conditions: displacement of [3H]-PGD2 (1 nM) from CHO-K1-hCRTH2 cell membranes, 3 h room temperature
Protocol: Preparation of Human CRTH2 Receptor Membranes and Radioligand Binding Assay
The binding of CRTH2 antagonists is determined using membranes prepared from Chinese hamster ovary cells (CHO-K1 cells) transfected with the human CRTH2 receptor (CHO-K1-hCRTH2 cells, Perkin Elmer, Cat No ES-561-C). To produce cell membranes the CHO-K1-hCRTH2 cells are cultured in suspension in CHO SFMII medium supplemented with 400 μg/ml G418. The cells are harvested by centrifugation at 300 g for 10 min at room temperature. The cell pellet is resuspended in Phosphate Buffer Saline (PBS) including a protease inhibitor mix (Complete, Roche) and adjusted to a concentration of 10E7 cells/ml. The CHO-K1-hCRTH2 cells are disrupted by nitrogen […] to obtain the membrane preparation. Cell debris is removed by centrifugation (500 g at 4° C., 30 min) and the supernatant is transferred into fresh tubes followed by a second centrifugation at 40000 g for 1 h at 4° C. to sediment the membranes. The membranes are suspended in SPA incubation buffer (50 mM Tris HCl, 10 mM MgCl2, 150 mM NaCl, 1 mM EDTA, pH 7.4) without bovine serum albumin, homogenized by passing through a single use needle (Terumo, 23G×1″), and stored in aliquots at −80° C.
The CRTH2 receptor binding assay is performed in a scintillation proximity assay (SPA) format with the radioligand [^3H]-PGD2 (Perkin Elmer, NET616000MC). CHO-K1-hCRTH2 cell membranes are again homogenized by passing through a single use needle (Terumo, 23G×1″) and diluted in SPA incubation buffer in suitable concentrations (0.5-10 μg protein/well). The SPA assay is set up in 96 well microtiter plates (Perkin Elmer, CatNo. 6005040) in SPA incubation buffer with a final volume of 200 μl per well and final concentration of 50 mM Tris-HCl, 10 mM MgCl2, 150 mM NaCl, 1 mM EDTA pH 7.4, 0.1% bovine serum albumin). The SPA assay mixture contains 60 μl of the membrane suspension, 80 μl of Wheat Germ Agglutinin coated PVT beads (GE Healthcare, RPNQ-0001, 0.3 mg/well), 40 μl of [3H]-PGD2 diluted in SPA buffer to a final concentration of 1 nM (50 000 dpm) and 20 μl of the test compound (dissolved in dimethylsulfoxid). The SPA assay mixture is incubated for 3 h at room temperature. Bound radioactivity is determined with a scintillation counter (Micro Beta Trilux, Wallac).
The binding of [^3H]-PGD2 to CHO-K1-hCRTH2 cell membranes is determined in the absence (total binding, Bo) and presence (non-specific binding, NSB) of unlabelled PGD2 (1 μM, Cayman Chemical, Cat No 12010) or a reference CRTH2 antagonist (10 μM CAY10471, Cayman Chemical, Cat No 10006735).
Determination of the affinity of a test compound is calculated by subtraction of the non-specific binding (NSB) from the total binding (Bo) or the binding in the presence of the test compound (B) at a given compound concentration. […] The Bo−NSB value is set to 0% inhibition.

SMILES: Cc1cc(Cl)ccc1C(=O)Nc1ccc(Cn2nc(C)c(CC(=O)O)c2C)c(Cl)c1 [Example 7.7]
Ki: 3.4 nM

SMILES: Cc1nn(Cc2ccc(CSc3ccc(Cl)c(Cl)c3)cc2)c(C)c1CC(=O)O [Example 16.4]
Ki: 875 nM

SMILES: Cc1nn(Cc2ccc(NS(=O)(=O)c3ccc(Cl)cc3)cc2)c(C)c1CC(=O)O [Example 5.2]
Ki: 33.7 nM

SMILES: CCc1nn(Cc2ccc([S+]([O-])Cc3ccccc3)cc2)c(CC)c1CC(=O)O (stereo not shown) [Example 19.4]
Ki: 48.8 nM

SMILES: Cc1nn(Cc2ccc(NC(=O)OCc3ccc(Cl)c(Cl)c3)cc2)c(C)c1CC(=O)O [Example 3.4]
Ki: 0.5 nM

SMILES: CCc1nn(Cc2ccc(OCc3cc(Cl)cc(Cl)c3)cc2)c(CC)c1CC(=O)O [Example 13.8]
Ki: 15.5 nM

SMILES: Cc1nn(Cc2ccc(NC(=O)c3ccc(Cl)c(Cl)c3)cc2)c(C)c1CC(=O)O [Example 1.8]
Ki: 2.6 nM

SMILES: COc1ccc(COc2ccc(Cn3nc(C)c(CC(=O)O)c3C)cc2)cc1C(F)(F)F [Example 13.6]
Ki: 28.9 nM

SMILES: CCc1nn(Cc2ccc(/C=C/c3ccc(Cl)cc3)cc2)c(CC)c1CC(=O)O [Example 12.3]
Ki: 12.3 nM

SMILES: Cc1nn(Cc2ccc(NC(=O)c3ccc4ccccc4c3)cc2)c(-c2ccccc2)c1CC(=O)O [Example 2.8]
Ki: 1.3 nM

SMILES: O=C(O)Cc1c(-c2ccccc2)nn(Cc2ccc(NC(=O)c3ccc4ccccc4c3)cc2)c1-c1ccccc1 [Example 2.44]
Ki: 10.2 nM

SMILES: Cc1nn(Cc2ccc(NC(=O)c3ccccc3)cc2)c(C)c1CC(=O)O [Example 1.3]
Ki: 30.8 nM

SMILES: Cc1nn(Cc2ccc(C#Cc3ccc(C(F)(F)F)cc3)cc2)c(C)c1CC(=O)O [Example 12.1]
Ki: 127 nM

SMILES: CCc1nn(Cc2ccc(C(=O)NC3CCC(C(C)(C)C)CC3)cc2)c(CC)c1CC(=O)O (stereo not shown) [Example 9.26]
Ki: 39.4 nM

SMILES: Cc1nn(Cc2ccc(NC(=O)OCc3ccc4ccccc4c3)cc2)c(C)c1CC(=O)O [Example 3.7]
Ki: 0.6 nM

SMILES: Cc1nn(Cc2ccc(NC(=O)c3ccc4ccccc4n3)cc2)c(C)c1CC(=O)O [Example 1.9]
Ki: 28.3 nM

SMILES: Cc1nn(Cc2ccc(C(=O)Nc3ccc(F)c(Cl)c3)cc2)c(C)c1CC(=O)O [Example 9.4]
Ki: 18.6 nM

SMILES: Cc1nn(Cc2ccc(NC(=O)c3ccc(Cl)cc3)cc2Cl)c(C)c1CC(=O)O [Example 7.6]
Ki: 1.2 nM

SMILES: Cc1nn(Cc2ccc(NC(=O)c3ccc(C(C)(C)C)cc3)cc2)c(C)c1CCC(=O)O [Example 8.4]
Ki: 26.1 nM

SMILES: Cc1nn(Cc2ccc(CS(=O)(=O)c3ccc(C(F)(F)F)cc3)cc2)c(C)c1CC(=O)O [Example 16.3]
Ki: 2290 nM

SMILES: CCc1nn(Cc2ccc(C(=O)N[C@@H]3CCC[C@H](c4ccccc4)C3)cc2)c(CC)c1CC(=O)O [Example 9.22]
Ki: 15.6 nM

SMILES: Cc1nn(Cc2ccc(NC(=O)/C=C/c3ccccc3)cc2F)c(C)c1CC(=O)O [Example 7.21]
Ki: 1.9 nM

SMILES: Cc1nn(Cc2ccc(C(=O)Nc3ccc(Cl)c(Cl)c3)cc2)c(C)c1CC(=O)O [Example 9.3]
Ki: 8.7 nM

SMILES: Cc1nn(Cc2ccc(NC(=O)c3ccc(C(C)(C)C)cc3)cc2)c(C)c1CC(=O)O [Example 1.15]
Ki: 0.2 nM

SMILES: Cc1nn(Cc2ccc(OCc3ccc(C(F)(F)F)cc3)cc2)c(C)c1CC(=O)O [Example 13.2]
Ki: 1070 nM

SMILES: Cc1cc2ccccc2cc1C(=O)Nc1ccc(Cn2nc(C)c(CC(=O)O)c2C)cc1 [Example 1.25]
Ki: 3.1 nM

SMILES: COc1c(CC(=O)O)c(C)nn1Cc1ccc(NC(=O)c2ccc3ccccc3c2)cc1 [Example 2.60]
Ki: 4.2 nM

SMILES: Cc1nn(Cc2ccc(NS(=O)(=O)c3ccc(Cl)c(Cl)c3)cc2)c(C)c1CC(=O)O [Example 5.3]
Ki: 30.6 nM

SMILES: Cc1nn(Cc2ccc(NC(=O)c3ccc(Cl)c(Cl)c3)cc2F)c(C)c1CC(=O)O [Example 7.18]
Ki: 2.4 nM

SMILES: Cc1nn(Cc2ccc(NC(=O)c3ccc4ccccc4c3)cc2F)c(C)c1CC(=O)O [Example 7.20]
Ki: 2.2 nM

SMILES: Cc1cc(C(F)(F)F)ccc1C(=O)Nc1ccc(Cn2nc(C)c(CC(=O)O)c2C)c(F)c1 [Example 7.16]
Ki: 3.5 nM

SMILES: Cc1nn(Cc2ccc(NC(=O)CCc3ccccc3)cc2)c(C)c1CC(=O)O [Example 1.10]
Ki: 7.4 nM

SMILES: CCc1nn(Cc2ccc(C(=O)NC3CCC4CCCCC4C3)cc2)c(CC)c1CC(=O)O (stereo not shown) [Example 9.25]
Ki: 32.1 nM

SMILES: Cc1nn(Cc2ccc(OCc3ccc(Cl)c(Cl)c3)cc2)c(C)c1CC(=O)O [Example 13.1]
Ki: 30 nM

SMILES: Cc1c(CC(=O)O)cnn1Cc1ccc(NC(=O)c2ccc3ccccc3c2)cc1 [Example 2.58]
Ki: 24.6 nM

SMILES: O=C(O)Cc1c(-c2ccccc2)nn(Cc2ccc(NC(=O)c3ccc(C(F)(F)F)cc3)cc2)c1-c1ccccc1 [Example 2.45]
Ki: 8.9 nM

SMILES: CCc1nn(Cc2ccc(C(=O)NC3CCC(C)(C)CC3)cc2)c(CC)c1CC(=O)O [Example 9.24]
Ki: 49.1 nM

SMILES: Cc1nn(Cc2ccc(NC(=O)c3ccccc3)cc2)c(C)c1CCC(=O)O [Example 8.3]
Ki: 3760 nM

SMILES: Cc1nn(Cc2ccc(NC(=O)c3cc4ccccc4cc3Cl)cc2)c(C)c1CC(=O)O [Example 1.23]
Ki: 5.7 nM

SMILES: Cc1c(CC(=O)O)c(-c2ccccc2)nn1Cc1ccc(NC(=O)c2ccc(Cl)c(Cl)c2)cc1 [Example 2.13]
Ki: 2.9 nM

Second part, the molecule after the results:

Ki: 80.2 nM
SMILES: Cc1ccc(C(=O)Nc2ccc(Cn3nc(C)c(CC(=O)O)c3C)cc2)c(C(F)(F)F)c1 [Example 1.21]

Ki: 6.3 nM
SMILES: CCc1nn(Cc2ccc(NC(=O)c3ccccc3C3CCCCC3)cc2)c(CC)c1CC(=O)O [Example 2.29]

Ki: 0.2 nM
SMILES: CCc1nn(Cc2ccc(NC(=O)c3ccc4ccccc4c3)cc2)c(CC)c1CC(=O)O [Example 2.14]

Ki: 1.4 nM
SMILES: CCc1nn(Cc2ccc(NC(=O)c3ccc(C)cc3C)cc2)c(CC)c1CC(=O)O [Example 2.15]

Ki: 9.3 nM
SMILES: Cc1nn(Cc2ccc(NC(=O)c3ccc(Br)cc3Cl)cc2)c(C)c1CC(=O)O [Example 1.27]

Ki: 49.9 nM
SMILES: CCc1nn(Cc2ccc(OCc3cccc(C)c3)cc2)c(CC)c1CC(=O)O [Example 13.13]

Ki: 3.9 nM
SMILES: Cc1cc(Br)ccc1C(=O)Nc1ccc(Cn2nc(C)c(CC(=O)O)c2C)cc1 [Example 1.16]

Ki: 16.2 nM
SMILES: Cc1nn(Cc2ccc(NC(=O)c3ccc(Cl)cc3F)cc2)c(C)c1CC(=O)O [Example 1.19]

Ki: 3.6 nM
SMILES: CCc1nn(Cc2ccc(NC(=O)c3ccc4ccccc4c3Br)cc2)c(CC)c1CC(=O)O [Example 2.26]

Ki: 13.9 nM
SMILES: CCc1nn(Cc2ccc(NC(=O)c3cccc(Cl)c3Cl)cc2)c(CC)c1CC(=O)O [Example 2.20]

Ki: 3.5 nM
SMILES: CCc1nn(Cc2ccc(NC(=O)OCc3ccccc3Br)cc2)c(CC)c1CC(=O)O [Example 3.11]

Ki: 2.7 nM
SMILES: Cc1cc(C(F)(F)F)ccc1C(=O)Nc1ccc(Cn2nc(C)c(CC(=O)O)c2C)cc1 [Example 1.11]

Ki: 0.6 nM
SMILES: CCc1c(CC(=O)O)c(C2CC2)nn1Cc1ccc(NC(=O)c2ccc(Cl)cc2C)cc1 [Example 2.46]

Ki: 0.1 nM
SMILES: CCc1nn(Cc2ccc(NC(=O)OCc3ccc(Cl)c(Cl)c3)cc2)c(CC)c1CC(=O)O [Example 3.9]

Ki: 7.7 nM
SMILES: Cc1ccc(C(=O)Nc2ccc(Cn3nc(C)c(CC(=O)O)c3C)cc2)cc1 [Example 1.4]

Ki: 39.1 nM
SMILES: CCc1nn(Cc2ccc(C(=O)Nc3cccc(F)c3)cc2)c(CC)c1CC(=O)O [Example 9.10]

Ki: 12.9 nM
SMILES: Cc1ccc(C(=O)Nc2ccc(Cn3nc(C)c(CC(=O)O)c3C)cc2)c(C)c1 [Example 1.12]

Ki: 2.8 nM
SMILES: CCc1nn(Cc2ccc(NC(=O)c3ccc(Cl)cc3Br)cc2)c(CC)c1CC(=O)O [Example 2.24]

Source: patent US20140148484A1, “PYRAZOLE COMPOUNDS FOR TREATING HAIRLOSS” (Boehringer Ingelheim International GmbH, priority 2012, published 2014)
